Legend:
[1] = target: SARS-CoV-2 M^pro-N (N-terminal domain with the catalytic core) (Severe acute respiratory syndrome coronavirus 2, UniProt P0DTD1); format: binding; settings: catalytic pocket, probably more than one site
[2] = target: SARS-CoV-2 M^pro (main protease, 3CL^pro), full-length (Severe acute respiratory syndrome coronavirus 2, UniProt P0DTD1); assay: fluorescent peptide cleavage assay, two doses; format: biochemical; settings: unreliable; estimated from two doses; limited by low aqueous solubility

Q: Which “1H-15N HSQC chemical shift perturbation” value [1] does the source give for `O=C(O)c1cccnc1` [niacin] here?
A: The value was “niacin perturbs H41, G143, N51, and V186”.

Q: For `CSc1nc2cc(Cl)c(Oc3cccc(Cl)c3Cl)cc2[nH]1` [triclabendazole], which IC50 [2] is on record?
A: The IC50 was ~ 70 μM.

Source: paper doi:10.1101/2020.05.05.079848v2 (biorxiv, 2020)
